Test results from patent US9708336B2, “Metallo-beta-lactamase inhibitors” (priority 2014, dated 2017).
pIC50: −log10 of the molar value. Where two headings read alike, the source gives them in different places.

Assays:
NDM-1 = NDM-1 (Klebsiella pneumoniae, UniProt C7C422); assay: biochemical; type: biochemical; conditions: read-out: NDM-1 IC50
VIM-1 = VIM-1 (Pseudomonas aeruginosa (strain ATCC 15692 / DSM 22644 / CIP 104116 / JCM 14847 / LMG 12228 / 1C / PRS 101 / PAO1), UniProt A0A0F7KYQ8); assay: Enzyme activity: determination of IC50, fluorescence assay with CCF2-FA substrate (VIM-1); type: biochemical
[1] = tested on: Escherichia coli expressing NDM-1 (CLB30005); assay: Antibiotic potentiation activity: synergistic concentration (MITC95) with imipenem, OD600 growth; type: cell-based; conditions: for Escherichia coli expressing NDM-1 (CLB 30005) MITC95: concentration giving 95% inhibition of bacterial growth; for Escherichia coli MITC95: Escherichia coli expressing NDM-1 (CLB30005), 95% growth inhibition
In short: (§1)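 In 1.1× CAMHB, clinical isolates from overnight plates were challenged with test compound alongside imipenem at an assay concentration of 4 μg/ml, sometimes 1 μg/ml. Plates sat covered at 35 °C for 22–24 h prior to spectrophotometric reading.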

[2] = tested on: Klebsiella pneumoniae expressing VIM-1 (IHMA599644); assay: as above; type: cell-based; conditions: for Klebsiella pneumoniae expressing VIM-1 (IHMA 599644) MITC95: concentration giving 95% inhibition of bacterial growth; for Klebsiella pneumoniae MITC95: Klebsiella pneumoniae expressing VIM-1 (IHMA599644), 95% growth inhibition
In short: as §1

[3] = tested on: Serratia marcescens expressing IMP-1 (CL5741); assay: as above; type: cell-based; conditions: for Serratia marcescens expressing IMP-1 (CL5741) MITC95: concentration giving 95% inhibition of bacterial growth; for Serratia marcescens MITC95: Serratia marcescens expressing IMP-1 (CL5741), 95% growth inhibition
In short: as §1

IMP-1 = IMP-1 (Serratia marcescens, UniProt P52699); assay: biochemical; type: biochemical; conditions: read-out: IMP-1 IC50
[4] = fluorescence assay with CCF2-FA substrate
[5] = fluorescence assay with CCF2-FA substrate, read-out: VIM-1 IC50
[6] = NDM-1 enzyme, CCF2-FA fluorescence assay
[7] = IMP-1 enzyme, CCF2-FA fluorescence assay

Chain of NDM-1 (C7C422 whole entry, looked up, species assumed): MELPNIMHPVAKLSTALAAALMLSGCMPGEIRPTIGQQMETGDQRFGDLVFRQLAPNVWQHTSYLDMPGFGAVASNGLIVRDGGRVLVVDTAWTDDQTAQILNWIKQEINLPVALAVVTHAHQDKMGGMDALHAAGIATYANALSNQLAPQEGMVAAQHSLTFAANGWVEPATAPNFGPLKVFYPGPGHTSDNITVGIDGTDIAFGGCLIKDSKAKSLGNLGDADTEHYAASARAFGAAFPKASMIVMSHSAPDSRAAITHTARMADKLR
Chain of IMP-1 (P52699 whole entry, looked up): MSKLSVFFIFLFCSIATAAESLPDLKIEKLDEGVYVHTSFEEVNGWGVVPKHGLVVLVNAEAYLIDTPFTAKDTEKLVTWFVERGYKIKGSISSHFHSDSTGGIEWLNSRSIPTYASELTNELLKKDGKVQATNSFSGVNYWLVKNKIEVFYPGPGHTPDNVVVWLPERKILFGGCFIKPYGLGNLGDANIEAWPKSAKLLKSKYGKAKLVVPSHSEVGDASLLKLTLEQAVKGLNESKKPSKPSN

Compound | pIC50 (NDM-1; [4]) | pIC50 (VIM-1; [5]) | Escherichia coli expressing NDM-1 (CLB 30005) MITC95 [1] | Klebsiella pneumoniae expressing VIM-1 (IHMA 599644) MITC95 [2] | Serratia marcescens expressing IMP-1 (CL5741) MITC95 [3] | pIC50 (IMP-1; [4]) | pIC50 (NDM-1; [6]) | pIC50 (VIM-1; VIM-1 enzyme, CCF2-FA fluorescence assay, read-out: VIM-1 IC50) | Escherichia coli MITC95 [1] | Klebsiella pneumoniae MITC95 [2] | Serratia marcescens MITC95 [3] | pIC50 (IMP-1; [7]) | pIC50 (VIM-1; VIM-1 IC50, fluorescence assay with CCF2-FA substrate) | pIC50 (VIM-1; VIM-1 IC50, VIM-1 enzyme, CCF2-FA fluorescence assay)
NS(=O)(=O)c1cccc(-c2cscn2)c1-c1nn[nH]n1 [Example 45, 2-(2H-tetrazol-5-yl)-3-(1,3-thiazol-4-yl)benzenesulfonamide] | 7.07 | 6.30 | 0.7813 µM | 50 µM | 25 µM | 5.92 | – | – | – | – | – | – | – | –
NS(=O)(=O)c1cccc(-c2ccnnc2)c1-c1nn[nH]n1 [Example 47, 3-pyridazin-4-yl-2-(2H-tetrazol-5-yl)benzenesulfonamide] | 6.46 | 5.27 | 0.7813 µM | >200 µM | 50 µM | 5.38 | – | – | – | – | – | – | – | –
NS(=O)(=O)c1cccc(C2=CCSCC2)c1-c1nn[nH]n1 [Example 62, 3-(3,6-dihydro-2H-thiopyran-4-yl)-2-(2H-tetrazol-5-yl)benzenesulfonamide] | 8.07 | 6.73 | 1.563 µM | 100 µM | 100 µM | 6.68 | – | – | – | – | – | – | – | –
C[C@H]1NC(=O)O[C@H]1c1ccc(-c2cccc(S(N)(=O)=O)c2-c2nnn[nH]2)cc1 [Example 23, 4′-[(4R,5S)-4-methyl-2-oxo-1,3-oxazolidin-5-yl]-2-(1H-tetrazol-5-yl)biphenyl-3-sulfonamide] | 9.20 | 8.01 | 2.344 µM | 50 µM | 2.344 µM | 8.36 | – | – | – | – | – | – | – | –
NS(=O)(=O)c1cccc(C(F)(F)F)c1-c1nnn[nH]1 [Example 256, 2-(1H-Tetrazol-5-yl)-3-(trifluoromethyl)benzenesulfonamide] | – | – | – | – | – | – | 6.64 | 5.07 | 0.7813 µM | >200 µM | 100 µM | 5.20 | – | –
NS(=O)(=O)c1cccc(-c2ccc(N3CCCCC3)cc2)c1-c1nn[nH]n1 [Example 18, 4′-piperidin-1-yl-2-(2H-tetrazol-5-yl)biphenyl-3-sulfonamide] | 8.69 | – | 3.906 µM | >200 µM | 103.1 µM | 7.63 | – | – | – | – | – | – | 6.49 | –
NCCCc1ccc(-c2cccc(S(N)(=O)=O)c2-c2nnn[nH]2)cc1 [Example 305, 4′-(3-aminopropyl)-2-(1H-tetrazol-5-yl)-[1,1′-biphenyl]-3-sulfonamide] | – | – | – | – | – | – | 7.30 | – | 1.953 µM | 18.75 µM | 4.688 µM | 6.48 | – | 6.99
NS(=O)(=O)c1cccc(-c2ccc(-c3ccn[nH]3)cc2)c1-c1nn[nH]n1 [Example 50, 4′-(1H-pyrazol-5-yl)-2-(2H-tetrazol-5-yl)biphenyl-3-sulfonamide] | 8.57 | 7.05 | 2.344 µM | 200 µM | 12.5 µM | 7.42 | – | – | – | – | – | – | – | –
Cc1csc(-c2cccc(S(N)(=O)=O)c2-c2nn[nH]n2)n1 [Example 34, 3-(4-methyl-1,3-thiazol-2-yl)-2-(2H-tetrazol-5-yl)benzenesulfonamide] | 6.82 | 5.84 | 3.125 µM | >200 µM | 150 µM | 5.51 | – | – | – | – | – | – | – | –
NS(=O)(=O)c1cccc(-c2ccc3c(c2)CCCO3)c1-c1nn[nH]n1 [Example 85, 3-(3,4-dihydro-2H-chromen-6-yl)-2-(2H-tetrazol-5-yl)benzenesulfonamide] | 8.74 | 7.55 | 2.344 µM | 150 µM | 37.5 µM | 7.02 | – | – | – | – | – | – | – | –
